Assay results as given in publication PMC10421376, “Simultaneous Determination of Five Iridoids of Picrorhiza scrophulariiflora in Rat Plasma Using UHPLC-ESI-MS/MS” (Molecules, 2023).
Read-outs that look alike come from different tables or passages of the source.

Key:
hyaluronidase = settings: cited from earlier work
[1] = Pharmacokinetics of five iridoids in rat plasma after oral administration of PS extract (UHPLC-ESI-MS/MS); type: in vivo, SD (Sprague Dawley) rats
Method: Six adult male SD (Sprague Dawley) rats (220–250 g) were purchased from the Animal Experiment Center of Heilongjiang University of Chinese Medicine. The Animal Ethics Committee of Harbin Medical University approved the experimental protocol, which conformed to the principles for the Care and Use of Laboratory Animals. The experimental animals were fed under the following conditions: room temperature (20–25 °C), relative humidity (40–60%), 12 h of alternating day and night lighting, 12 h of fasting before the experiment, and free access to water. We calculated the dosage of SD rats using the standardized formula for body surface area (BSA). According to the Chinese Pharmacopoeia, the dosage of PS raw medicine for human use is 10 g. The dosage for rats is 0.9 g/kg.
The dried PS powder weighed 200 g and was extracted with eight times the amount of 75% ethanol at reflux three times for 2 h each time. The extracts were combined, filtered, distilled under reduced pressure until the alcoholic taste disappeared, and lyophilized with water. In our previous laboratory experiments, we used HPLC to determine the content of five analytes, namely Picroside-I (15.68 mg/g), Picroside-II (103.64 mg/g), Picroside-III (64.08 mg/g), minecoside (2.02 mg/g), and sweroside (12.28 mg/g). After freeze-drying, we dissolved the solid in a 5% sodium carboxymethyl cellulose solution and prepared a medicinal extract solution with a concentration of 0.3 g/mL.
A dose of 1 g/kg of body weight was administered to rats according to the pharmacopoeia and previous content results for the five analytes. Rat tail vein blood samples were collected in heparinized tubes before and 0.167, 0.333, 0.5, 0.75, 1, 2, 4, 6, 8, and 12 h after administration and centrifuged at 3500 rpm for 10 min. We obtained 100 µL of the upper layer of plasma and stored it at −20 °C for measurement.
The plasma samples were treated according to the method described in Section 3.3. The plasma samples were determined according to the chromatographic conditions described in Section 3.4 and chromatograms were recorded. The measured peak area ratios of the substances being measured and the IS were substituted into the accompanying standard curves on the same day. We also calculated the blood concentrations of Picroside-I (15.68 mg/g), Picroside-II (103.64 mg/g), Picroside-III (64.08 mg/g), minecoside (2.02 mg/g), and sweroside (12.28 mg/g), respectively. We determined the QC samples at the same time, allowing a maximum of two different concentrations of QC samples to exceed the theoretical value of ±15% of the RE% value.
The peak areas of Picroside-I, Picroside-II, Picroside-III, minecoside, sweroside, and IS in each sample were recorded. We calculated and substituted their ratios into the standard curve equation to obtain corresponding concentrations for the five substances being measured in the plasma of SD rats. The blood concentration data of each rat were processed separately to calculate the relevant pharmacokinetic parameters, and the mean and standard deviation of the parameters were further calculated. We calculated and plotted pharmacokinetic parameters including concentration–time curves (AUC0–t, AUC0–∞), average residence time (MRT), maximum plasma concentration (Cmax), time to reach the maximum concentration (Tmax), and half-time (t1/2) using pharmacokinetic software (DAS 2.0) with a non-atrial chamber model for blood concentration–time curves. All parameters were expressed as mean ± SD.

CXCR4 = test system: CXCR4; parameters: method as in PMID 32016931; settings: breast cancer cells; cited from earlier work
[2] = Stability of the analytes in rat plasma QC samples under storage and processing conditions; type: in vitro ADME; settings: n = 6; for Short-Term Stability RE: room temperature 4 h; for Freeze-Thaw RE: three freeze-thaw cycles −20 °C/room temperature; for Long-Term Stability RE: −20 °C two weeks
Method: Stability refers to the chemical stability of the sample being tested in a given medium under certain external conditions. We obtained 100 µL of rat blank plasma and prepared low, medium, and high concentrations of the QC sample standard solutions, Picroside-I, Picroside-II, Picroside-III, minecoside, and sweroside, according to the method described in Section 3.3. As simulated biological samples, the following conditions were investigated: (1) Short-term stability (QC samples were left at room temperature for 4 h, which exceeded the sample preparation time); (2) long-term stability (QC samples were left at −20 °C for two weeks); (3) freeze-thaw stability (three freeze-thaw cycles at −20 °C/room temperature) and post-preparation stability (QC samples were left in a 4 °C auto sampling chamber for 24 h).

[3] = parameters: method as in PMID 27498779; settings: mice, bile stasis-induced liver injury; cited from earlier work
H9c2 = settings: cardiac cell line H9c2; cited from earlier work
[4] = male, Sprague-Dawley, rat, in vivo, po, 1 g/kg
[5] = rat plasma, oral PS extract 1 g/kg, n = 6, mean ± SD

Row | Structure (SMILES) | AUC(0-inf) [1, 4] | AUC(0-t) [1, 4] | Cl [1, 4] | Cmax [1, 4] | MRT last [1, 4] | Tmax [1, 4] | Vd [1, 4] | half-life [1, 4] | Short-Term Stability RE ([2]; high QC) | Freeze-Thaw RE ([2]; high QC) | Long-Term Stability RE ([2]; high QC) | Short-Term Stability RE ([2]; low QC) | Freeze-Thaw RE ([2]; low QC) | Long-Term Stability RE ([2]; low QC) | Short-Term Stability RE ([2]; medium QC) | Freeze-Thaw RE ([2]; medium QC) | Long-Term Stability RE ([2]; medium QC) | other results
1 | COc1ccc(/C=C/C(=O)O[C@H]2[C@@H]3C=CO[C@@H](O[C@@H]4O[C@H](CO)[C@@H](O)[C@H](O)[C@H]4O)[C@@H]3[C@@]3(CO)O[C@@H]23)cc1O [Minecoside, minecoside] | 93.5 ± 22.6 ng·h/mL | 78.9 ± 10.2 ng·h/mL | 119.1 ± 39.7 mL/min/kg | 21.1 ± 7.8 ng/mL | 4.1 ± 0.7 h | 1 ± 0.2 h | 19.26 ± 4.77 L/kg | 5 ± 2.3 h | – | – | – | – | – | – | – | – | – | Hyaluronidase inhibitory activity (hyaluronidase): hyaluronidase inhibitory activity; Effect on CXCR4 expression (CXCR4): inhibits the expression of CXCR4
2 | COc1cc(C(=O)O[C@H]2[C@@H]3C=CO[C@@H](O[C@@H]4O[C@H](CO)[C@@H](O)[C@H](O)[C@H]4O)[C@@H]3[C@@]3(CO)O[C@@H]23)ccc1O [Picroside-II] | 611 ± 246 ng·h/mL | 604 ± 239 ng·h/mL | 2873.3 ± 999.3 mL/min/kg | 336 ± 92.3 ng/mL | 2.3 ± 0.5 h | 1.1 ± 0.1 h | 796 ± 503.5 L/kg | 2.3 ± 1.5 h | 4.47% | −1.47% | −2.19% | −4.99% | 7.08% | 8.69% | 8.53% | −7.21% | 1.37% | AUC(0-t) ([1]; male, Sprague-Dawley, rat, in vivo, po): 604 ± 239 ng·h/mL
3 | O=C(/C=C/c1ccccc1)OC[C@H]1O[C@@H](O[C@@H]2OC=C[C@H]3[C@H](O)[C@@H]4O[C@]4(CO)[C@@H]23)[C@H](O)[C@@H](O)[C@@H]1O [Picroside-I] | 382 ± 29.4 ng·h/mL | 361 ± 25.6 ng·h/mL | 607.2 ± 290.6 mL/min/kg | 114 ± 16.1 ng/mL | 3.6 ± 0.2 h | 1.1 ± 0.2 h | 186.7 ± 17.436 L/kg | 2.4 ± 0.3 h | 6.58% | −1.94% | 3.59% | 8.93% | 6.43% | 5.60% | 3.83% | −2.74% | −5.69% | –
4 | C=C[C@H]1[C@H](O[C@@H]2O[C@H](CO)[C@@H](O)[C@H](O)[C@H]2O)OC=C2C(=O)OCC[C@H]21 [Sweroside, sweroside] | – | – | – | – | – | – | – | – | – | – | – | – | – | – | – | – | – | Effect on pro-inflammatory responses and bile acid levels [3]: improves pro-inflammatory responses and bile acid levels; Effect on aconitine toxicity to myoblasts (H9c2): reduce aconitine’s toxicity; AUC(0-t) ([1]; male, Sprague-Dawley, in vivo, rat plasma, oral PS extract 1 g/kg, n = 6, mean ± SD, read-out: AUC0–t): 261 ± 65.3 ng·h/mL; AUC(0-inf) ([1]; male, Sprague-Dawley, in vivo, rat plasma, oral PS extract 1 g/kg, n = 6, mean ± SD, read-out: AUC0–∞): 268 ± 70.8 ng·h/mL; Cmax ([1]; male, Sprague-Dawley, in vivo, rat plasma, oral PS extract 1 g/kg, n = 6, mean ± SD, read-out: Cmax): 63.7 ± 17.6 ng/mL; MRT last ([1]; male, Sprague-Dawley, in vivo, rat plasma, oral PS extract 1 g/kg, n = 6, mean ± SD, read-out: MRT0–t): 3.9 ± 0.3 h; Tmax ([1]; male, Sprague-Dawley, in vivo, rat plasma, oral PS extract 1 g/kg, n = 6, mean ± SD, read-out: Tmax): 2.1 ± 0.1 h; half-life ([1]; male, Sprague-Dawley, in vivo, rat plasma, oral PS extract 1 g/kg, n = 6, mean ± SD, read-out: t1/2 (converted)): 1.2 ± 0.3 h; Cl [1, 5]: 2015 ± 615.8 mL/min/kg; Vd [1, 5]: 785.1 ± 130.6 L/kg
